Values of other authors, collected in patent US20050002962A1, “Immunostimulatory agents in botanicals” (priority 2003, published 2005).

Experiments:
mice = conditions: mouse, in vivo
macrophages = conditions: 250 μg/ml

Compound | carbon clearance (mice) | macrophage IL-1 production, of maximal E. coli LPS (10 μg/ml) (macrophages) [%] | macrophage interferon-β production versus maximal E. coli LPS (10 μg/ml) (macrophages)
O=C(/C=C/c1ccc(O)c(O)c1)O[C@@H](C(=O)O)[C@@H](OC(=O)/C=C/c1ccc(O)c(O)c1)C(=O)O [cichoric acid, Cichoric acid] | enhanced carbon clearance | – | –
arabinogalactan | – | 20 | equal to
echinacoside | inactive | – | –
